# Laboratory results: ChEMBL document CHEMBL4043168, “The design and SAR of a novel series of 2-aminopyridine based LRRK2 inhibitors” (Bioorg Med Chem Lett, 2017)
# Tests used:
# [1] = biological target: Calcium/calmodulin-dependent protein kinase type II subunit gamma (Homo sapiens) (UniProt Q13555); assay: Inhibition of CaMK2g labeling at conserved Lys2 (DLKPENLLLASK) in human PBMC at 1 uM
# [2] = biological target: Cyclin-dependent kinase 5 (Homo sapiens) (UniProt Q00535); assay: Inhibition of CDK5 labeling at conserved Lys1 (NRETHEIVALKR) in human PBMC at 1 uM
# Chain of Cyclin-dependent kinase 5 (Homo sapiens) (Q00535 whole entry, looked up): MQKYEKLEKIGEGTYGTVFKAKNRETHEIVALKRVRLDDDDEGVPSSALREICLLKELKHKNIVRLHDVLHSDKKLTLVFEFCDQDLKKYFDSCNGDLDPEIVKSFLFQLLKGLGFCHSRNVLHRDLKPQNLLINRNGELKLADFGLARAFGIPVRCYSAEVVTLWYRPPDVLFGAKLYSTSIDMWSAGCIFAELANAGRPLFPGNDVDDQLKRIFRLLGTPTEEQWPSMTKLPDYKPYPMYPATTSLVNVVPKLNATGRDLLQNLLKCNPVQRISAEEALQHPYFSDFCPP
# [3] = biological target: Mitogen-activated protein kinase 1 (Homo sapiens) (UniProt P28482); assay: Inhibition of Erk2 ATP binding site (DLKPSNLLLNTTCDLK) in human PBMC at 1 uM
# [4] = biological target: Tyrosine-protein kinase Fer (Homo sapiens) (UniProt P16591); assay: Inhibition of FER conserved Lys2 (QEDGGVYSSSGLKQIPIK) in human PBMC at 1 uM
# [5] = biological target: Tyrosine-protein kinase Fgr (Homo sapiens) (UniProt P09769); assay: Inhibition of FGR conserved Lys1 (LIKDDEYNPCQGSKFPIK) in human PBMC at 1 uM
# [6] = biological target: eIF-2-alpha kinase GCN2 (Homo sapiens) (UniProt Q9P2K8); assay: Inhibition of GCN2 conserved Lys2 (DLKPVNIFLDSDDHVK) in human PBMC at 1 uM
# [7] = biological target: Mitogen-activated protein kinase kinase kinase 1 (Homo sapiens) (UniProt Q13233); assay: Inhibition of MAP3K1 conserved Lys2 (DVKGANLLIDSTGQR) in human PBMC at 1 uM
# [8] = biological target: Serine/threonine-protein kinase 24 (Homo sapiens) (UniProt Q9Y6E0); assay: Inhibition of MST3 conserved Lys2 (DIKAANVLLSEHGEVK) in human PBMC at 1 uM
# [9] = biological target: Serine/threonine-protein kinase Nek8 (Homo sapiens) (UniProt Q86SG6); assay: Inhibition of NEK8 conserved Lys2 (DLKTQNILLDK) in human PBMC at 1 uM
# Chain of Serine/threonine-protein kinase Nek8 (Homo sapiens) (Q86SG6 whole entry): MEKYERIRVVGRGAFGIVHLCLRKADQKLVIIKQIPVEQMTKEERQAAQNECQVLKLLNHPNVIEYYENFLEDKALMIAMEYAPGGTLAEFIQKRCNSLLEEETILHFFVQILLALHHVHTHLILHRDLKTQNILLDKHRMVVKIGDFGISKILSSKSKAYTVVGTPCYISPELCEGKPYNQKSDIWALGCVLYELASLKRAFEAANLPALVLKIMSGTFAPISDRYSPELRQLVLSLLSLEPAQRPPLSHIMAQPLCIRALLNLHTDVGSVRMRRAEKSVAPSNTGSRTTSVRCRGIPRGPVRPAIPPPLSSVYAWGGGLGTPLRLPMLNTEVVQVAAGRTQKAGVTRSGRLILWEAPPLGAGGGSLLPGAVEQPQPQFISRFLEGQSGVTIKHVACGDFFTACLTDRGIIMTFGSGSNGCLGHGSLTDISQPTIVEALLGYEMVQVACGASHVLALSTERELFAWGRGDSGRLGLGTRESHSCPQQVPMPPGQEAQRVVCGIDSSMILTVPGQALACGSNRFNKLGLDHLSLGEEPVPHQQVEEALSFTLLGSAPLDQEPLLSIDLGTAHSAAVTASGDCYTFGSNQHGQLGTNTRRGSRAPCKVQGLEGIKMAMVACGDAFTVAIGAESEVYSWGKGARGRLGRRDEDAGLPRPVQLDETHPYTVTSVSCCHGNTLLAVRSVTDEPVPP
# [10] = biological target: STE20-like serine/threonine-protein kinase (Homo sapiens) (UniProt Q9H2G2); assay: Inhibition of SLK conserved Lys2 (DLKAGNILFTLDGDIK) in human PBMC at 1 uM
# [11] = biological target: Serine/threonine-protein kinase WNK1 (Homo sapiens) (UniProt Q9H4A3); assay: Inhibition of Wnk1 conserved Lys2 (DLKCDNIFITGPTGSVK) in human PBMC at 1 uM
# Chain of Serine/threonine-protein kinase WNK1 (Homo sapiens) (Q9H4A3 whole entry, looked up): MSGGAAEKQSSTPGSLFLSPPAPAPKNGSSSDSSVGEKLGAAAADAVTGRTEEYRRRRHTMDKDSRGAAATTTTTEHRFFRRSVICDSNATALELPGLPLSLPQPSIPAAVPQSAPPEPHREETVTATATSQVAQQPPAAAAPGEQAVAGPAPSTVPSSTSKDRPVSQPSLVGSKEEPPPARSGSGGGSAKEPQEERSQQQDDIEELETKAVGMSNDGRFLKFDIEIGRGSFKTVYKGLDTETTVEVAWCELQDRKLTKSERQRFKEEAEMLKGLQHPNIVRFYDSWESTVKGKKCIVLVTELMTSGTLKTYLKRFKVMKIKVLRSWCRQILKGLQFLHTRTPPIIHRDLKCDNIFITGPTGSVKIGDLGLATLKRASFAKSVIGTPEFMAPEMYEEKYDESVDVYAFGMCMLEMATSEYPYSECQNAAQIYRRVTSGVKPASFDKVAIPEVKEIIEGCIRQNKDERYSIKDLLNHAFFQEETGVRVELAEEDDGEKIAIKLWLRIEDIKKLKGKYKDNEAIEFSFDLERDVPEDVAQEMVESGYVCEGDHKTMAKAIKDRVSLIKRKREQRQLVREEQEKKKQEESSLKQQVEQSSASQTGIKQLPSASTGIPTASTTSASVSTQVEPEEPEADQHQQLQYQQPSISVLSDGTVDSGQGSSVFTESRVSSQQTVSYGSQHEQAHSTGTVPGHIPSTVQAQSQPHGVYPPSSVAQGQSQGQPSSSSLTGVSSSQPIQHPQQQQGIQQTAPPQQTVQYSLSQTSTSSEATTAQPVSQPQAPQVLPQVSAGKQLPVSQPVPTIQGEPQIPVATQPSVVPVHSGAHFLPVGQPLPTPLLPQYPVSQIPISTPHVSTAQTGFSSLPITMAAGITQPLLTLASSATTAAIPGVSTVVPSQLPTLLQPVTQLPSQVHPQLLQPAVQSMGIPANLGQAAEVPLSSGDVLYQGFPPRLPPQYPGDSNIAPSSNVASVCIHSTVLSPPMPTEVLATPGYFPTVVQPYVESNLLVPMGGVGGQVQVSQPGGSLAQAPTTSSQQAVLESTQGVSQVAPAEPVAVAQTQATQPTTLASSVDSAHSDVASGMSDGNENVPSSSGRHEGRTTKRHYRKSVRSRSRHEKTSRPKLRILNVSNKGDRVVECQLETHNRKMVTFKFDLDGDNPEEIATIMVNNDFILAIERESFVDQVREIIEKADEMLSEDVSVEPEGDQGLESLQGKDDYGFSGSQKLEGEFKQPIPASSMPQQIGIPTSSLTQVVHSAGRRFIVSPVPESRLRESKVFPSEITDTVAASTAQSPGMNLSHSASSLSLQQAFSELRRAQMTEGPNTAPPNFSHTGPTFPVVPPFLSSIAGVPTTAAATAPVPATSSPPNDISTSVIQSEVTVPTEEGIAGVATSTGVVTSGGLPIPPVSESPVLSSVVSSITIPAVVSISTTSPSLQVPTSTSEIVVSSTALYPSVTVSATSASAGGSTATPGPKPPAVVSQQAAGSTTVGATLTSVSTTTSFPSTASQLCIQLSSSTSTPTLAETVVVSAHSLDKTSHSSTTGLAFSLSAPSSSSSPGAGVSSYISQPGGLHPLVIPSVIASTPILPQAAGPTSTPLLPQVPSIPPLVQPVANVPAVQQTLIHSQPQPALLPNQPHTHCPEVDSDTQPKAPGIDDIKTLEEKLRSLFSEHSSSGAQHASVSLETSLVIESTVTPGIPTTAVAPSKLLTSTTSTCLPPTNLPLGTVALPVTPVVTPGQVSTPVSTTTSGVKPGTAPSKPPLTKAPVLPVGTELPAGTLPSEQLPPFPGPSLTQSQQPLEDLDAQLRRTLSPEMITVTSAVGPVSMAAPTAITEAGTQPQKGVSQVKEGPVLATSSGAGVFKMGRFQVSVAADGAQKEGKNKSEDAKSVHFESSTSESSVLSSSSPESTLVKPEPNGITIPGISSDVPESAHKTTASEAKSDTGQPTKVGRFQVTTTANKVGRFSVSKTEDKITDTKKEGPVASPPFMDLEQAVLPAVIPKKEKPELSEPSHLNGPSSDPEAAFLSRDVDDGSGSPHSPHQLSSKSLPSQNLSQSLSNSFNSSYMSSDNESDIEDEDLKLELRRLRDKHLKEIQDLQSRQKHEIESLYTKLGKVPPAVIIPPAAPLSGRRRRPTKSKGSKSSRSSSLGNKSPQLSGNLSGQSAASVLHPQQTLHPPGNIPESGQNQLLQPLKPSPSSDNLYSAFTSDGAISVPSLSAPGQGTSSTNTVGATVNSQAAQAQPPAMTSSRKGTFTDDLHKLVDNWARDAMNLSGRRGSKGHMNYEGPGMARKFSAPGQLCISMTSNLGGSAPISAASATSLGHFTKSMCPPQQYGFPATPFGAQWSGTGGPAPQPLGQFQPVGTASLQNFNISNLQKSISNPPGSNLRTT
# [12] = biological target: Serine/threonine-protein kinase WNK2 (Homo sapiens) (UniProt Q9Y3S1); assay: Inhibition of Wnk2 activation Loop (IGDLGLATLKR) in human PBMC at 1 uM
# [13] = biological target: Tyrosine-protein kinase Yes (Homo sapiens) (UniProt P07947); assay: Inhibition of YES activation Loop (QGAKFPIKWTAPEAALYGR) in human PBMC at 0.1 uM
# Chain of Tyrosine-protein kinase Yes (Homo sapiens) (P07947 2-543 limits assumed): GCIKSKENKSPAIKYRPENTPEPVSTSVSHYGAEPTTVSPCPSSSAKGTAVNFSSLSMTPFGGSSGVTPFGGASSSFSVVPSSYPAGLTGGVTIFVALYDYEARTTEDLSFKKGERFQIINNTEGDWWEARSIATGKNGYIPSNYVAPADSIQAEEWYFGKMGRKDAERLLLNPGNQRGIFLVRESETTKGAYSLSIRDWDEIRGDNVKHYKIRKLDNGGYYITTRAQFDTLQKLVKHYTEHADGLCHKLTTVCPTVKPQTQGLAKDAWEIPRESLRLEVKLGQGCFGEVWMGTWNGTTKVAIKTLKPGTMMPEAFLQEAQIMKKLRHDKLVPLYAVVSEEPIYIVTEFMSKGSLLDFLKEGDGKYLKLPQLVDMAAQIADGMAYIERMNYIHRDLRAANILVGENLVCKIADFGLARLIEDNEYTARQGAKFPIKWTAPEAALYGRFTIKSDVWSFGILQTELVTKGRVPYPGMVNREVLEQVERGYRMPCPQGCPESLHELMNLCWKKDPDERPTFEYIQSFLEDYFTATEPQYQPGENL
# [14] = biological target: Serine/threonine-protein kinase SIK2 (Homo sapiens) (UniProt Q9H0K1); assay: Inhibition of QIK conserved Lys1 (EVAIKIIDK) in human PBMC at 0.1 uM
# [15] = biological target: T1, Serine/threonine-protein kinase 3 (Homo sapiens) (UniProt Q13188); assay: Inhibition of MST2 conserved Lys1 (ESGQVVAIKQVPVESDLQEIIK) in human PBMC at 0.1 uM
# T1 sequence (whole entry): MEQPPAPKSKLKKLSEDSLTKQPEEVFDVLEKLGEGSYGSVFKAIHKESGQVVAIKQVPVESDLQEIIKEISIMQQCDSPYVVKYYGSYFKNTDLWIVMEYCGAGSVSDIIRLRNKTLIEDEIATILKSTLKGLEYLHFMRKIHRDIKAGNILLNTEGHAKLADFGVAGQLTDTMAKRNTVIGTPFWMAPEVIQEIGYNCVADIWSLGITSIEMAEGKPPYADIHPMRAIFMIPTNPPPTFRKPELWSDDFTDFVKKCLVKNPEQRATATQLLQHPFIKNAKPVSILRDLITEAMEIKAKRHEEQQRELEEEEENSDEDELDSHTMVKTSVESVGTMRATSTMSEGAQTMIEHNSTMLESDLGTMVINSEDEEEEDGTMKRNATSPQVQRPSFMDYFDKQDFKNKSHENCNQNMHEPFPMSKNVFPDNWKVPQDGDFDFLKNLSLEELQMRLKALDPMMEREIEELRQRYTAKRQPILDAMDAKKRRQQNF
# [16] = biological target: Serine/threonine-protein kinase Nek7 (Homo sapiens) (UniProt Q8TDX7); assay: Inhibition of NEK7 conserved Lys2 (DIKPANVFITATGVVK) in human PBMC at 0.1 uM
# Chain of Serine/threonine-protein kinase Nek7 (Homo sapiens) (Q8TDX7 whole entry, looked up): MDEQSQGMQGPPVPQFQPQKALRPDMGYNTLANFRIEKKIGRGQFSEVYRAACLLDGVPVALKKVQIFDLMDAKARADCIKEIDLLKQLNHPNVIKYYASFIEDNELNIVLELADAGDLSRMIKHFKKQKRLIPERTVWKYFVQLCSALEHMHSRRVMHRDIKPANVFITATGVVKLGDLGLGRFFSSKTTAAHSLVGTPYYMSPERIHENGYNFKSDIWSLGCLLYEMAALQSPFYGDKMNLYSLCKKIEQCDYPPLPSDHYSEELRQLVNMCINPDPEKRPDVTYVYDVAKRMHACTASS
# [17] = biological target: Serine/threonine-protein kinase Nek7 (Homo sapiens) (UniProt Q8TDX7); assay: Inhibition of NEK7 conserved Lys1 (AACLLDGVPVALKK) in human PBMC at 0.1 uM
# [18] = biological target: Serine/threonine-protein kinase Nek9 (Homo sapiens) (UniProt Q8TD19); assay: Inhibition of NEK9 conserved Lys2 (DIKTLNIFLTK) in human PBMC at 0.1 uM
# [19] = biological target: Mitogen-activated protein kinase 14 (Homo sapiens) (UniProt Q16539); assay: Inhibition of p38a (QELNKTIWEVPER) in human PBMC at 0.1 uM
# [20] = biological target: Interferon-induced, double-stranded RNA-activated protein kinase (Homo sapiens) (UniProt P19525); assay: Inhibition of PKR conserved Lys2 (DLKPSNIFLVDTK) in human PBMC at 0.1 uM
# [21] = biological target: Ribosomal protein S6 kinase alpha-2 (Homo sapiens) (UniProt Q15349); assay: Inhibition of RSK3 domain1 conserved Lys2 (DLKPENILLDEEGHIK) in human PBMC at 0.1 uM
# Chain of Ribosomal protein S6 kinase alpha-2 (Homo sapiens) (Q15349 whole entry, the tested form may be a part): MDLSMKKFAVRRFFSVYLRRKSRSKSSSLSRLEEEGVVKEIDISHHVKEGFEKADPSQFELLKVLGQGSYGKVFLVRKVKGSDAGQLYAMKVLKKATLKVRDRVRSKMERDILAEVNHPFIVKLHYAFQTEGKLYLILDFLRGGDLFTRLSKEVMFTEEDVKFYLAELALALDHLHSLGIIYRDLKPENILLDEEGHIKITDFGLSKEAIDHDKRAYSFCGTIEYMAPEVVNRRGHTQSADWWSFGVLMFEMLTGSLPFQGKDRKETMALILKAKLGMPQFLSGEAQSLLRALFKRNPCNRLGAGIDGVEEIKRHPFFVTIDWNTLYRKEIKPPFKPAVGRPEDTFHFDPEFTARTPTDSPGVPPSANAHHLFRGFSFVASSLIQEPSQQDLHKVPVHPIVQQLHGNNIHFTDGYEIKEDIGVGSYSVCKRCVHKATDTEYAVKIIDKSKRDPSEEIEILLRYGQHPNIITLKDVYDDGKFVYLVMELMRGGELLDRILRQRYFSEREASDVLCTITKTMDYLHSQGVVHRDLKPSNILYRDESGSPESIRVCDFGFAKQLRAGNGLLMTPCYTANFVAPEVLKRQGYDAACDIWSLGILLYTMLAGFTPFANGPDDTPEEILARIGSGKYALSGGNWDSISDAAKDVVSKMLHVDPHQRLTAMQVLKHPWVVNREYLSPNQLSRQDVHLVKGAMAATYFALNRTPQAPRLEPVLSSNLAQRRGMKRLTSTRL
# [22] = biological target: Serine/threonine-protein kinase WNK1 (Homo sapiens) (UniProt Q9H4A3); assay: Inhibition of Wnk1 activation Loop (IGDLGLATLKR) in human PBMC at 0.1 uM; settings: pooled result: one value given for 4 cell lines, strains, targets or settings
# [23] = biological target: Cyclin-dependent kinase 17 (Homo sapiens) (UniProt Q00537); assay: Inhibition of PCTAIRE2 conserved Lys2 (DLKPQNLLINEK) in human PBMC at 1 uM
compound,measurement,setting,value
CC(C)n1cc(-c2cc(-c3ccc(CN4CCOCC4)cc3)cnc2N)nn1,inhibition,[1],-0.4%
same,inhibition,[2],1.9%
same,inhibition,[3],14.9%
same,inhibition,[4],5.2%
same,inhibition,[5],-8.4%
same,inhibition,[6],-2%
same,inhibition,[7],83.3%
same,inhibition,[8],7.2%
same,inhibition,[9],17.1%
same,inhibition,[10],30.5%
same,inhibition,[11],2.2%
same,inhibition,[12],21.9%
same,inhibition,[13],-4.4%
same,inhibition,[14],-6.7%
same,inhibition,[15],7.7%
same,inhibition,[16],-4.8%
same,inhibition,[17],7.6%
same,inhibition,[18],26.5%
same,inhibition,[19],8.2%
same,inhibition,[20],13.7%
same,inhibition,[21],11.8%
same,inhibition,[22],21.4%
same,inhibition,[23],7.7%
